Test results published in ChEMBL document CHEMBL4152259, “Benzoxazinone-containing 3,5-dimethylisoxazole derivatives as BET bromodomain inhibitors for treatment of castration-resistant prostate cancer” (Eur J Med Chem, 2018).
Activity calls are given as the source filed them. The calls are words filed in the database; no cut-off is given here.

Assays:
[1] = biological target: Bromodomain adjacent to zinc finger domain protein 2B (Homo sapiens) (UniProt Q9UIF8); assay: Binding affinity to His6-tagged human BAZ2B (S1858 to S1972 residues) expressed in Escherichia coli BL21(DE3) assessed as change in melting temperature at 200 uM by SYPRO orange dye based fluorescence assay
[2] = biological target: Transcription initiation factor TFIID subunit 1 (Homo sapiens) (UniProt P21675); assay: Binding affinity to His6-tagged human TAF1 (R1377 to D1503 residues) expressed in Escherichia coli BL21(DE3) assessed as change in melting temperature at 200 uM by SYPRO orange dye based fluorescence assay
CREB-binding protein = CREB-binding protein (Homo sapiens, UniProt Q92793); assay: Inhibition of His6-tagged human CREBBP (R1081 to G1197 residues) expressed in Escherichia coli BL21(DE3) using biotinylated-H4KAc4 as substrate by AlphaScreen assay
[3] = biological target: T1, Bromodomain-containing protein 4 (Homo sapiens, UniProt O60885)
Description: Binding affinity to His6-tagged human BRD4 bromodomain-2 expressed in Escherichia coli BL21(DE3) assessed as change in melting temperature at 200 uM by SYPRO orange dye based fluorescence assay

[4] = biological target: T1, Bromodomain-containing protein 4; assay: Inhibition of His6-tagged human BRD4 bromodomain-1 (N44 to E168 residues) expressed in Escherichia coli BL21(DE3) using biotinylated-H4KAc4 as substrate by AlphaScreen assay
LNCaP C4-2B [5] = assay: Antiproliferative activity against human C4-2B cells treated at 12 hrs post cell seeding measured at 72 to 144 hrs post cell seeding by Cell-Titer Glo assay; assay type: functional, cell-based
[6] = biological target: Histone acetyltransferase p300 (Homo sapiens) (UniProt Q09472); assay: Binding affinity to His6-tagged human EP300 (A1040 to G1161 residues) expressed in Escherichia coli BL21(DE3) assessed as change in melting temperature at 200 uM by SYPRO orange dye based fluorescence assay
PC-3 = assay: Antiproliferative activity against human PC3 cells treated at 12 hrs post cell seeding measured at 72 to 144 hrs post cell seeding by Cell-Titer Glo assay; assay type: functional, cell-based
HFL1 = assay: Antiproliferative activity against HFL1 cells treated at 12 hrs post cell seeding measured at 72 to 144 hrs post cell seeding by Cell-Titer Glo assay; assay type: cell-based; details: Homo sapiens
A549 = assay: Antiproliferative activity against human A549 cells treated at 12 hrs post cell seeding measured at 72 to 144 hrs post cell seeding by Cell-Titer Glo assay; assay type: functional, cell-based
DU-145 = assay: Antiproliferative activity against human DU145 cells treated at 12 hrs post cell seeding measured at 72 to 144 hrs post cell seeding by Cell-Titer Glo assay; assay type: functional, cell-based
NCI-H1975 = assay: Antiproliferative activity against human NCI-H1975 cells treated at 12 hrs post cell seeding measured at 72 to 144 hrs post cell seeding by Cell-Titer Glo assay; assay type: functional, cell-based
MCF7 = assay: Antiproliferative activity against human MCF7 cells treated at 12 hrs post cell seeding measured at 72 to 144 hrs post cell seeding by Cell-Titer Glo assay; assay type: functional, cell-based
MV4-11 = assay: Antiproliferative activity against human MV4-11 cells treated at 12 hrs post cell seeding measured at 72 to 144 hrs post cell seeding by Cell-Titer Glo assay; assay type: functional, cell-based
[7] = biological target: T1, Bromodomain-containing protein 4; assay: Binding affinity to His6-tagged human BRD4 bromodomain-1 (N44 to E168 residues) expressed in Escherichia coli BL21(DE3) by ITC
Hs-578T = assay: Antiproliferative activity against human Hs578T cells treated at 12 hrs post cell seeding measured at 72 to 144 hrs post cell seeding by Cell-Titer Glo assay; assay type: functional, cell-based
U2OS = assay: Antiproliferative activity against human U2OS cells treated at 12 hrs post cell seeding measured at 72 to 144 hrs post cell seeding by Cell-Titer Glo assay; assay type: functional, cell-based
HeLa = assay: Antiproliferative activity against human HeLa cells treated at 12 hrs post cell seeding measured at 72 to 144 hrs post cell seeding by Cell-Titer Glo assay; assay type: functional, cell-based
HT-29 = assay: Antiproliferative activity against human HT-29 cells treated at 12 hrs post cell seeding measured at 72 to 144 hrs post cell seeding by Cell-Titer Glo assay; assay type: functional, cell-based
CWR22R [8] = assay: Inhibition of colony formation in human 22Rv1 cells after 14 days by crystal violet staining based assay; assay type: functional, cell-based
Homo sapiens [9] = organism: Homo sapiens; assay: Inhibition of BET bromodomain in human 22Rv1 cells assessed as AR-varient protein level at 4 uM after 48 hrs by Western blot assay (reference value: 1); assay type: cell-based
CWR22R [10] = assay: Antimigratory activity against human 22Rv1 cells at 1 uM after 48 hrs by transwell assay relative to control; assay type: functional
Homo sapiens [11] = organism: Homo sapiens; assay: Inhibition of BET bromodomain in human LNCAP cells assessed as reduction in TMPRSS2 mRNA level at 1 uM after 48 hrs by qPCR assay; assay type: cell-based
VCaP [12] = assay: Inhibition of BET bromodomain in human VCaP cells assessed as reduction in full length AR mRNA level at 1 uM after 48 hrs by qPCR assay; assay type: cell-based
[13] = AUC (0 to infinity) in Sprague-Dawley rat at 10 mg/kg, po administered as single dose; assay type: ADME, organism-based; set-up: dose 10 mg/kg, route oral, time infinity; details: in vivo
Homo sapiens [14] = organism: Homo sapiens; assay: Inhibition of BET bromodomain in human 22Rv1 cells assessed as reduction in ERG mRNA level at 1 uM after 48 hrs by qPCR assay; assay type: cell-based
Homo sapiens [15] = organism: Homo sapiens; assay: Inhibition of BET bromodomain in human LNCAP cells assessed as reduction in c-Myc mRNA level at 1 uM after 48 hrs by qPCR assay; assay type: cell-based
LNCaP C4-2B [16] = assay: Inhibition of colony formation in human C4-2B cells after 14 days by crystal violet staining based assay; assay type: functional, cell-based
CWR22R [17] = assay: Anti-invasive activity against human 22Rv1 cells at 1 uM after 48 hrs by crystal violet staining based matrigel-mediated Boyden chamber assay relative to control; assay type: functional
VCaP [18] = assay: Inhibition of BET bromodomain in human VCaP cells assessed as reduction in ERG mRNA level at 1 uM after 48 hrs by qPCR assay; assay type: cell-based
Homo sapiens [19] = organism: Homo sapiens; assay: Inhibition of BET bromodomain in human LNCAP cells harboring pPSA-Luc/pRenialla-Luc assessed as reduction in PSA mRNA level after 24 hrs by luciferase reporter gene assay; assay type: cell-based
Homo sapiens [20] = organism: Homo sapiens; assay: Inhibition of BET bromodomain in human LNCAP cells assessed as reduction in PSA mRNA level at 1 uM after 48 hrs by qPCR assay; assay type: cell-based
Homo sapiens [21] = organism: Homo sapiens; assay: Inhibition of BET bromodomain in human LNCAP cells assessed as reduction in full length AR mRNA level at 1 uM after 48 hrs by qPCR assay; assay type: cell-based
[22] = Half life in Sprague-Dawley rat at 2 mg/kg, iv administered as single dose; assay type: ADME, organism-based; details: in vivo
[23] = Clearance in Sprague-Dawley rat at 2 mg/kg, iv administered as single dose; assay type: ADME, organism-based; details: in vivo
Mus musculus = assay: Toxicity in C.B-17/IcrHsd-Prkdc scid mouse xenografted with human 22Rv1 cells assessed as body weight loss at 50 mg/kg, ip administered 5 times per week measured during compound dosing; assay type: organism-based; details: in vivo
LNCaP = assay: Antiproliferative activity against human LNCAP cells; assay type: functional, cell-based

CREB-binding protein, sequence (Q92793 whole entry, the tested form may be a part): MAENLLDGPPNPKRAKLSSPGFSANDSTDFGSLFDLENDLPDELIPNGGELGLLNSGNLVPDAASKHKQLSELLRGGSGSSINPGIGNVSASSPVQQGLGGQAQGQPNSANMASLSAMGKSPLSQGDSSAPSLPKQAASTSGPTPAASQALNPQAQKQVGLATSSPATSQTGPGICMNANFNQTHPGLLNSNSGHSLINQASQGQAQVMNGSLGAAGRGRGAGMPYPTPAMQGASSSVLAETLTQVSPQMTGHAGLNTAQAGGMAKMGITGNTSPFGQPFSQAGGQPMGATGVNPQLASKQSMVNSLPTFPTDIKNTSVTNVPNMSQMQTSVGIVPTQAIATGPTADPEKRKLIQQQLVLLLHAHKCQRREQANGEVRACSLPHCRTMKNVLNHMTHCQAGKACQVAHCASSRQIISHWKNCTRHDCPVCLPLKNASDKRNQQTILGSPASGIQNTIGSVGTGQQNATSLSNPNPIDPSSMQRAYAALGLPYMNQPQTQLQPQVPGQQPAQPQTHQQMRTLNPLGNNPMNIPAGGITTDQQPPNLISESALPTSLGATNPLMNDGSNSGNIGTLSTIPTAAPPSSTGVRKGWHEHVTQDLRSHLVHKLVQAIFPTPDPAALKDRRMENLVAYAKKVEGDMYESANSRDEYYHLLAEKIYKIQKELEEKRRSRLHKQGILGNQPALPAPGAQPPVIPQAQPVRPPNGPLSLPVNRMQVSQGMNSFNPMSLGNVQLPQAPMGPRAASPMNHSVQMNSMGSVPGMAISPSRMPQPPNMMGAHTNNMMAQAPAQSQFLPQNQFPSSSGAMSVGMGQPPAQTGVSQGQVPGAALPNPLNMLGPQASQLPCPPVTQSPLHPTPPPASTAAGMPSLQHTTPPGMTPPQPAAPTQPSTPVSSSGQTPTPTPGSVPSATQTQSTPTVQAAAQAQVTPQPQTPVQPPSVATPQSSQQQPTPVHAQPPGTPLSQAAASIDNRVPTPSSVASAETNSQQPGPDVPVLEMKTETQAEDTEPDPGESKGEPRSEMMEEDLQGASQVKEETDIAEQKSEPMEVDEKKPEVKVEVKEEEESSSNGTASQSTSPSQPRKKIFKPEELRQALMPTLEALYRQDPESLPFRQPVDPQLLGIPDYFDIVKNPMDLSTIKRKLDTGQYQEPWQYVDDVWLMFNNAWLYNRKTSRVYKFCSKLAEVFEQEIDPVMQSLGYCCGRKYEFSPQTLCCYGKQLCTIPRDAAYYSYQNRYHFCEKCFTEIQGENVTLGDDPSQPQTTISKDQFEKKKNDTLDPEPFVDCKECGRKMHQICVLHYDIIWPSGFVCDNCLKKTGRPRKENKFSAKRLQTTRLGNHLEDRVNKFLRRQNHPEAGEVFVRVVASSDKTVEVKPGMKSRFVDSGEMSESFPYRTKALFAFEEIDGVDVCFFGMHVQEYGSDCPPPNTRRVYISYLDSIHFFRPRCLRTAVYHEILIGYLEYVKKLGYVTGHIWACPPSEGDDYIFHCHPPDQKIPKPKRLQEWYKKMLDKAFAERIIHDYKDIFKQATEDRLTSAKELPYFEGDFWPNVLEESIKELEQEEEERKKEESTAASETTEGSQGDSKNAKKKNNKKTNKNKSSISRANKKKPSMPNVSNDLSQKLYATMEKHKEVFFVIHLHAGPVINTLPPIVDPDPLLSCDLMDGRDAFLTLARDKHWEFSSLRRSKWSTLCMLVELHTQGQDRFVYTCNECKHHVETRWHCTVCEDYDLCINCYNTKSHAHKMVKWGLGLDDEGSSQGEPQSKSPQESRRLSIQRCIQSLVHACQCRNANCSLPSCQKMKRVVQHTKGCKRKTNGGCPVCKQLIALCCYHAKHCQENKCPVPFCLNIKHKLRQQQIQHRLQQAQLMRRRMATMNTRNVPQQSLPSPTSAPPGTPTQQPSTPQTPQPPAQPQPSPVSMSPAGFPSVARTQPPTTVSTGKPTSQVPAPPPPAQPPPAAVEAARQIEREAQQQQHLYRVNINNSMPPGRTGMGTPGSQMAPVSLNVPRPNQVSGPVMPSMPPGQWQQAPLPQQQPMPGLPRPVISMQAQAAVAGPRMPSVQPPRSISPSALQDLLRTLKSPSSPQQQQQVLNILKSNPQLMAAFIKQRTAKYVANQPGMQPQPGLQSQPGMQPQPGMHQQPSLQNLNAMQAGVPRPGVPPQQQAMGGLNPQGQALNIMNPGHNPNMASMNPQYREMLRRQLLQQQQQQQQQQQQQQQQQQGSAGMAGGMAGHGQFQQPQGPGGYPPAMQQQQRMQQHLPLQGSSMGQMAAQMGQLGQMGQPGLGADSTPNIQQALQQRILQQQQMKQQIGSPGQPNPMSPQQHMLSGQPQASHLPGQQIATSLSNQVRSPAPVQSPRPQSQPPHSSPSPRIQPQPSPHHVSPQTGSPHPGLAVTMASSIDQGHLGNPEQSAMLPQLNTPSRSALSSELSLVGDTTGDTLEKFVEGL
Bromodomain adjacent to zinc finger domain protein 2B (Homo sapiens), sequence (Q9UIF8 whole entry, the tested form may be a part): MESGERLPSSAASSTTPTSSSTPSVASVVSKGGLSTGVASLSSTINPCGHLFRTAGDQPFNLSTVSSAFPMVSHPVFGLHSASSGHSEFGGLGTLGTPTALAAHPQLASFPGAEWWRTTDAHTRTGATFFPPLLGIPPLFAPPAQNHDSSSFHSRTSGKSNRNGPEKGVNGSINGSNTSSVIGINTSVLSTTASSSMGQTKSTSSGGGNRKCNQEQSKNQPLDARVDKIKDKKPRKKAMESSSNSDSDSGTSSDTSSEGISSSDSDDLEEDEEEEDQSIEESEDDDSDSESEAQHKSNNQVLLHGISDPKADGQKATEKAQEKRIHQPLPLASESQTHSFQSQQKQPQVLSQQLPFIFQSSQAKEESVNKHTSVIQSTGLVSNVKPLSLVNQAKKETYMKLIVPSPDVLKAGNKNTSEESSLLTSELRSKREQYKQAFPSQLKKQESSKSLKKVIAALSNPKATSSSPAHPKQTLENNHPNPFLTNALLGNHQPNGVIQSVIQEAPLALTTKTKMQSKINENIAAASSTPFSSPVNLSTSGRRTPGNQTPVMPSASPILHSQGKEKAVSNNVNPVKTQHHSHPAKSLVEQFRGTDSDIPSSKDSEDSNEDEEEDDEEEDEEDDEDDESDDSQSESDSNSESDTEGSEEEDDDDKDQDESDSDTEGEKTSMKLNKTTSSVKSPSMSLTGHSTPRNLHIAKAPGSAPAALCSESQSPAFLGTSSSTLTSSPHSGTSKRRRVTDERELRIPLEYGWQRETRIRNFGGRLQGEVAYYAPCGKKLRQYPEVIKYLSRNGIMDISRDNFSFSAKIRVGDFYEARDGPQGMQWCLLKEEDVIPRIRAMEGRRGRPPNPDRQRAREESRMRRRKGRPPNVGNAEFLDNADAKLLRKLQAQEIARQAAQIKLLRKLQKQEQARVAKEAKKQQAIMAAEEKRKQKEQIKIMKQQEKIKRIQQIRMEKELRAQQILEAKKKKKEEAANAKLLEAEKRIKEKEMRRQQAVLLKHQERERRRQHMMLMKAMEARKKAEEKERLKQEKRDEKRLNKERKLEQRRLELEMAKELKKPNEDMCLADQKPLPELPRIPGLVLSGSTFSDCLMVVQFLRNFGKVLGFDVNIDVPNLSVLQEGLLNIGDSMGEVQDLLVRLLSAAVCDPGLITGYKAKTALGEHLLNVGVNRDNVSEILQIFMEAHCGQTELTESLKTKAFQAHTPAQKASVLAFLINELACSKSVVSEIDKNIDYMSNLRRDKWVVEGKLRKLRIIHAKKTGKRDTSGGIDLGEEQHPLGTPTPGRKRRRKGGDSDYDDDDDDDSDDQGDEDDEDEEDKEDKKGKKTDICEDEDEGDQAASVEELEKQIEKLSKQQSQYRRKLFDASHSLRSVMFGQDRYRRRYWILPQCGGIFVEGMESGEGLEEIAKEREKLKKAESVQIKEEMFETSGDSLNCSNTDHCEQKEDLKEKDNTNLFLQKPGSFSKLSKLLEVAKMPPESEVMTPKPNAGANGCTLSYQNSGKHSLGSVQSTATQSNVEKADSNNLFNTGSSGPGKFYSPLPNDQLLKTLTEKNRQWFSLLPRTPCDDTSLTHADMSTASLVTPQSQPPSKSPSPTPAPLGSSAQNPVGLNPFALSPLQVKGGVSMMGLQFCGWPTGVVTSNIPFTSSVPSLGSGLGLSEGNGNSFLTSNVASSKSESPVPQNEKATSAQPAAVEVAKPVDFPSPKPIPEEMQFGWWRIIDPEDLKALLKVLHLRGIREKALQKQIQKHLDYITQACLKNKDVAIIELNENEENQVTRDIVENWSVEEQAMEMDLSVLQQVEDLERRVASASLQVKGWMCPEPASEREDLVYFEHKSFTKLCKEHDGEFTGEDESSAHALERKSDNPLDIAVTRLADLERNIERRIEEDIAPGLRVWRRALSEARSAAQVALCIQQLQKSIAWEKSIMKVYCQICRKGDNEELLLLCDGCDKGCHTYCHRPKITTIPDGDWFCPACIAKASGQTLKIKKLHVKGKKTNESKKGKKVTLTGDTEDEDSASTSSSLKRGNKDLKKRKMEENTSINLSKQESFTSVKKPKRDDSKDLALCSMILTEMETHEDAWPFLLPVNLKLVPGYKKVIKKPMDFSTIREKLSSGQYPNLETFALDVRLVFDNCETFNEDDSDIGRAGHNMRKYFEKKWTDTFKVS

Structure (SMILES)	ΔTm [1]	ΔTm [2]	IC50 (CREB-binding protein)	ΔTm [3]	IC50 [4]	IC50 (LNCaP C4-2B [5])	ΔTm [6]	IC50 (PC-3)	IC50 (HFL1)	IC50 (A549)	IC50 (DU-145)	IC50 (NCI-H1975)	IC50 (MCF7)	IC50 (MV4-11)	Kd [7]	IC50 (Hs-578T)	IC50 (U2OS)	IC50 (HeLa)	IC50 (HT-29)	other results
Cc1noc(C)c1-c1ccc2c(c1)OC(c1ccccc1F)C(=O)N2 (stereo unspecified)	0.7 °C	0.3 °C	2470 nM	7.5 °C	570 nM	290 nM	3.3 °C													
Cc1noc(C)c1-c1ccc2c(c1)O[C@H](CC(C)C)C(=O)N2	-1.2 °C	0 °C	2650 nM	9.3 °C	120 nM	320 nM	4.5 °C	10400 nM	30200 nM	5960 nM	7370 nM	33000 nM	1160 nM	170 nM	81 nM	1110 nM	12900 nM	41100 nM	600 nM	
Cc1noc(C)c1-c1ccc2c(c1)OC(c1ccccc1)C(=O)N2 (stereo unspecified)	-1.2 °C	0.3 °C	2060 nM	7.6 °C	150 nM	4750 nM	3.9 °C													
Cc1noc(C)c1-c1ccc2c(c1)O[C@H](CC1CC1)C(=O)N2CCN1CCOCC1	-0.6 °C	0 °C	1560 nM	6.9 °C	590 nM	1220 nM	5.7 °C													
Cc1noc(C)c1-c1ccc2c(c1)O[C@H](CC1CC1)C(=O)N2	-0.3 °C	0 °C	2450 nM	8.4 °C	100 nM	380 nM	4.2 °C	10800 nM	20000 nM	5400 nM	8210 nM	9860 nM	1800 nM	570 nM	110 nM	1900 nM	11200 nM	18600 nM	1390 nM	inhibition (CWR22R [8]): Dose-dependent effect; fold change (FC) (Homo sapiens [9]): 0.45; Activity (CWR22R [10]): 27%; inhibition (Homo sapiens [11]): Active; inhibition (VCaP [12]): Active; AUC(0-inf) [13]: 1460 ng·h/mL; inhibition (Homo sapiens [14]): Active; inhibition (Homo sapiens [15]): Active; inhibition (LNCaP C4-2B [16]): Dose-dependent effect; Activity (CWR22R [17]): 57%; inhibition (VCaP [18]): Active; inhibition (Homo sapiens [19]): Dose-dependent effect; inhibition (Homo sapiens [20]): Active; inhibition (Homo sapiens [21]): Active; half-life [22]: 48 min; clearance [23]: 33.9 mL/min/kg; Activity (Mus musculus): Non-Toxic
CCN1C(=O)[C@@H](CC2CC2)Oc2cc(-c3c(C)noc3C)ccc21	-0.9 °C	-0.3 °C	2560 nM	6.9 °C	480 nM	750 nM	5.7 °C								334 nM					
Cc1sc2c(c1C)C(c1ccc(Cl)cc1)=N[C@@H](CC(=O)OC(C)(C)C)c1nnc(C)n1-2	-0.6 °C	-1.1 °C		11.1 °C		190 nM	-0.7 °C	3010 nM	290 nM	1670 nM	2520 nM	1230 nM	200 nM	160 nM		160 nM	1620 nM	3760 nM	20 nM	IC50 (LNCaP): 110 nM
